Assays:
[1] = target: T1, interaction between the recombinant extracellular domain (ECD) of PD-1 and native cell-bound PD-L1 (Homo sapiens, UniProt Q9NZQ7); assay: CHO/PD-L1 cell capture assay; assay type: cell-based; details: CHO cells overexpressing PD-L1, pre-incubated 1 hr with compound, captured on biotinylated Fc-PD-1 coated plates, 75 min at room temperature
T1 construct: expressed in transfected cells
Summary of the method: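 EC50 values came from four-parameter fits of counts of Draq5-stained CHO-PD-L1 cells retained on plate-bound biotinylated Fc-PD-1 ECD, enumerated by high-content imaging. Cells in PBS pH 7.4 with EDTA and 2% BSA had 1 hr compound pre-incubation, then 75 min capture at room temperature.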

[2] = target: T2, PD-L1 (Homo sapiens, UniProt Q9NZQ7); assay: PD-L1/PD-L1 dimerization biochemical protein-protein interaction assay (ALPHA); assay type: binding; details: compound-induced PD-L1 dimerization, head prints '1 nM' (0.5 nM His-tagged PD-L1 and 0.5 nM FLAG-tagged PD-L1), read-out: AC50 PDL1 Dimer Alpha 1 nM
T2 construct: determine if they can specifically dimerize the extracellular domains of PD-L1
T2 sequence (Q9NZQ7 19-238 limits assumed): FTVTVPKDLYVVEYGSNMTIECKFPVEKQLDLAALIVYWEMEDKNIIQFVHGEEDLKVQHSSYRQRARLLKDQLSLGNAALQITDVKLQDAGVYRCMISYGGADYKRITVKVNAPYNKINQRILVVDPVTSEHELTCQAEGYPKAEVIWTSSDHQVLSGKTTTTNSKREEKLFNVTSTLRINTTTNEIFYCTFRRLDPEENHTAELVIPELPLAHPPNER
T2 sequence (Q9NZQ7 19-238 limits assumed): as above
Summary of the method: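 After 2 h at 25 °C with compound, His- and FLAG-tagged PD-L1 ECDs (each 0.5 nM final; 25 mM Hepes pH 7.4, 150 mM NaCl) were detected by sequential anti-His acceptor and anti-FLAG donor bead incubations. Dose-response curves fitted to four-parameter equation for AC50.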

[3] = target: T3, PD-1/PD-L1 interaction (Homo sapiens, UniProt Q9NZQ7); assay: PD-1/PD-L1 NFAT reporter co-culture assay; assay type: cell-based; details: Jurkat PD-1 NFAT-luciferase cells co-cultured with aAPC-PD-L1 CHO cells, 6 hrs at 37° C.; read-out: EC50 NFAT Luciferase
T3 construct: expressed in transfected cells; host or cells: CHO cells (aAPC-PD-L1) co-cultured with Jurkat cells overexpressing PD-1 and an NFAT-luciferase reporter
T3 sequence (Q9NZQ7 19-290): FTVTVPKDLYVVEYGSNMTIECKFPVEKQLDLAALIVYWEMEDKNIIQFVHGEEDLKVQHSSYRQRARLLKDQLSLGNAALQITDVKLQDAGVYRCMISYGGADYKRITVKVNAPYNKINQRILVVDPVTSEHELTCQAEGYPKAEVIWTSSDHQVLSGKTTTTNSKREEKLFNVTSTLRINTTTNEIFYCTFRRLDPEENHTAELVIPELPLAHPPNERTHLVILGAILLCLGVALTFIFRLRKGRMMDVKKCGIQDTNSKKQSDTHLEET
Summary of the method: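 Jurkat cells overexpressing PD-1 with NFAT-driven luciferase were mixed with compound in RPMI 1640/2% FBS and seeded onto overnight-plated CHO aAPC-PD-L1 cells expressing surface anti-CD3 and PD-L1. Co-culture ran 6 h at 37 °C; luminescence read with ONE-Glo; EC50 from four-parameter fit.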

[4] = target: PD-1/PD-L1 (Homo sapiens, UniProt Q9NZQ7); assay: PD-1/PD-L1 biochemical protein-protein interaction assay (ALPHA); assay type: binding; details: 0.3 nM His tagged PD-L1, 2.5 nM biotinylated Fc-PD-1, 60 minutes at 25° C., read-out: IC50 PD-L1-PD-1 Alpha IC50-mono PD-L1-fcP-D1
Chain of PD-1/PD-L1 (Q9NZQ7 19-238 limits assumed): as the sequence (Q9NZQ7 19-238 limits assumed) above
Summary of the method: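 Bead proximity read-out: compound-driven loss of ALPHA signal between anti-His acceptor and streptavidin donor beads (20 μg/mL acceptor). Proteins: 0.3 nM His-PD-L1, 2.5 nM biotin-Fc-PD-1, final. 60 min, 25° C, Hepes pH 7.4 buffer. IC50 via four-parameter dose-response fit.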

T1 sequence (Q9NZQ7 19-290): as the sequence (Q9NZQ7 19-290) above

Structure (SMILES) | EC50 [1] | AC50 [2] | EC50 [3] | IC50 [4]
COc1nc(O[C@H]2CCc3c(-c4cccc5c4CC[C@@H]5Oc4nc(OC)c(CNC[C@@H](O)CC(=O)O)cc4Br)cccc32)c(Br)cc1CNC[C@@H](O)CC(=O)O [Example 7, (3S,3′S)-4,4′-((((((1S,1′S)-2,2′,3,3′-tetrahydro-1H,1′H-[4,4′-biindene]-1,1′-diyl)bis(oxy))bis(5-bromo-2-methoxypyridine-6,3-diyl))bis(methylene))bis(azanediyl))bis(3-hydroxybutanoic acid)] | 56 nM | 140 nM | 89 nM | 0.1 nM
Cc1c(COc2cc(OCc3cncc(C#N)c3)c(CNC[C@@H](O)CC(=O)O)cc2Cl)cccc1-c1cccc(-c2ccc(OCCNC[C@@H](O)CC(=O)O)cc2)c1C [Example 16, (S)-4-((4-((4″-(2-(((S)-3-carboxy-2-hydroxypropyl)amino)ethoxy)-2,2′-dimethyl-[1,1′:3′,1″-terphenyl]-3-yl)methoxy)-5-chloro-2-((5-cyanopyridin-3-yl)methoxy)benzyl)amino)-3-hydroxybutanoic acid] | 6 nM | 100 nM | 88 nM | 0.1 nM
COc1nc(O[C@H]2CCc3c(-c4cccc5c4CC[C@@H]5Oc4nc(OC)c(CNC[C@@H](O)CC(=O)O)cc4Cl)cccc32)c(Cl)cc1CNC[C@@H](O)CC(=O)O [Example 6, (3S,3′S)-4,4′-((((((1S,1′S)-2,2′,3,3′-tetrahydro-1H,1′H-[4,4′-biindene]-1,1′-diyl)bis(oxy))bis(5-chloro-2-methoxypyridine-6,3-diyl))bis(methylene))bis(azanediyl))bis(3-hydroxybutanoic acid)] | 63.8 nM | 90.9 nM | 148 nM | 0.1 nM
COc1nc(OCc2cccc(-c3cccc(COc4nc(OC)c(CNCC(=O)O)cc4Cl)c3C)c2C)c(Cl)cc1CNCC(=O)O [Example 178, 2,2′-((((((2,2′-dimethyl-[1,1′-biphenyl]-3,3′-diyl)bis(methylene))bis(oxy))bis(5-chloro-2-methoxypyridine-6,3-diyl))bis(methylene))bis(azanediyl))diacetic acid] | 71.6 nM | ≥ 10000 nM | 115 nM | 0.2 nM
COc1nc(OCc2cccc(-c3cccc(COc4nc(OC)c(CNC[C@@H](O)C(=O)O)cc4Cl)c3C)c2C)c(Cl)cc1CNC[C@@H](O)C(=O)O [Example 167, (2R,2′R)-3,3′-((((((2,2′-dimethyl-[1,1′-biphenyl]-3,3′-diyl)bis(methylene))bis(oxy))bis(5-chloro-2-methoxypyridine-6,3-diyl))bis(methylene))bis(azanediyl))bis(2-hydroxypropanoic acid)] | 62.3 nM | ≥ 10000 nM | 109 nM | 2.2 nM
COc1cc(OCc2cccc(-c3cccc(COc4cc(OC)c(CNC[C@@H](O)CC(=O)O)cc4Cl)c3C)c2C)c(Cl)cc1CNC[C@@H](O)CC(=O)O [Example 214, (3S,3′S)-4,4′-((((((2,2′-dimethyl-[1,1′-biphenyl]-3,3′-diyl)bis(methylene))bis(oxy))bis(5-chloro-2-methoxy-4,1-phenylene))bis(methylene))bis(azanediyl))bis(3-hydroxybutanoic acid)] | 22.3 nM | 188 nM | 172 nM | 0.2 nM
Cc1c(COc2cc(OCc3cncc(C#N)c3)c(CNC[C@H](O)C(=O)O)cc2Cl)cccc1-c1cccc(COc2cc(OCc3cncc(C#N)c3)c(CNC[C@H](O)C(=O)O)cc2Cl)c1C [Example 213, (2S,2′S)-3,3′-((((((2,2′-dimethyl-[1,1′-biphenyl]-3,3′-diyl)bis(methylene))bis(oxy))bis(5-chloro-2-((5-cyanopyridin-3-yl)methoxy)-4,1-phenylene))bis(methylene))bis(azanediyl))bis(2-hydroxypropanoic acid)] | 165 nM | 255 nM | 182 nM | 1.6 nM
Cc1c(COc2nc(OC[C@H]3CCC(=O)N3)c(CNCC(=O)O)cc2Br)cccc1-c1cccc(COc2nc(OC[C@H]3CCC(=O)N3)c(CNCC(=O)O)cc2Br)c1C [Example 129, 2,2′-((((((2,2′-dimethyl-[1,1′-biphenyl]-3,3′-diyl)bis(methylene))bis(oxy))bis(5-bromo-2-(((R)-5-oxopyrrolidin-2-yl)methoxy)pyridine-6,3-diyl))bis(methylene))bis(azanediyl))diacetic acid] | 221 nM | 167 nM | 198 nM | 

More lines, now with the values ahead:

EC50 [1] | AC50 [2] | EC50 [3] | IC50 [4] | Structure (SMILES)
194 nM | 279 nM | 391 nM | 0.3 nM | Cc1c(COc2nc(OCC3COC3)c(CNC[C@@H](O)CC(=O)O)cc2Br)cccc1-c1cccc(COc2nc(OCC3COC3)c(CNC[C@@H](O)CC(=O)O)cc2Br)c1C [Example 132, (3S,3′S)-4,4′-((((((2,2′-dimethyl-[1,1′-biphenyl]-3,3′-diyl)bis(methylene))bis(oxy))bis(5-bromo-2-(oxetan-3-ylmethoxy)pyridine-6,3-diyl))bis(methylene))bis(azanediyl))bis(3-hydroxybutanoic acid)]
217 nM | 367 nM | 108 nM | 0.4 nM | Cc1c(COc2nc(OCc3cncc(C#N)c3)c(CNC[C@@H](O)CC(=O)O)cc2Br)cccc1-c1cccc(COc2nc(OCc3cncc(C#N)c3)c(CNC[C@@H](O)CC(=O)O)cc2Br)c1C [Example 240, (3S,3′S)-4,4′-((((((2,2′-dimethyl-[1,1′-biphenyl]-3,3′-diyl)bis(methylene))bis(oxy))bis(5-bromo-2-((5-cyanopyridin-3-yl)methoxy)pyridine-6,3-diyl))bis(methylene))bis(azanediyl))bis(3-hydroxybutanoic acid)]
68.6 nM | 166 nM | 193 nM | 0.2 nM | Cc1c(COc2nc(OCCc3cncnc3)c(CNC[C@@H](O)CC(=O)O)cc2Br)cccc1-c1cccc(COc2nc(OCCc3cncnc3)c(CNC[C@@H](O)CC(=O)O)cc2Br)c1C [Example 127, (3S,3′S)-4,4′-((((((2,2′-dimethyl-[1,1′-biphenyl]-3,3′-diyl)bis(methylene))bis(oxy))bis(5-bromo-2-(2-(pyrimidin-5-yl)ethoxy)pyridine-6,3-diyl))bis(methylene))bis(azanediyl))bis(3-hydroxybutanoic acid)]
263 nM | 236 nM | 160 nM | 0.2 nM | Cc1c(COc2cc(OCc3cncc(C#N)c3)c(CNC[C@H](O)CC(=O)O)cc2Cl)cccc1-c1cccc(COc2cc(OCc3cncc(C#N)c3)c(CNC[C@H](O)CC(=O)O)cc2Cl)c1C [Example 162, (3R,3′R)-4,4′-((((((2,2′-dimethyl-[1,1′-biphenyl]-3,3′-diyl)bis(methylene))bis(oxy))bis(5-chloro-2-((5-cyanopyridin-3-yl)methoxy)-4,1-phenylene))bis(methylene))bis(azanediyl))bis(3-hydroxybutanoic acid)]
15.6 nM | 67.2 nM | 17 nM | 0.1 nM | N#Cc1cncc(COc2nc(O[C@H]3CCc4c(-c5cccc6c5CC[C@@H]6Oc5nc(OCc6cncc(C#N)c6)c(CNC[C@@H](O)CC(=O)O)cc5Br)cccc43)c(Br)cc2CNC[C@@H](O)CC(=O)O)c1 [Example 4, (3S,3′S)-4,4′-((((((1S,1′S)-2,2′,3,3′-tetrahydro-1H,1′H-[4,4′-biindene]-1,1′-diyl)bis(oxy))bis(5-bromo-2-((5-cyanopyridin-3-yl)methoxy)pyridine-6,3-diyl))bis(methylene))bis(azanediyl))bis(3-hydroxybutanoic acid)]
